Experimental data taken from patent publication US20250328351A1, “CARBONIC ANHYDRASE INHIBITORS AND ANTIBIOTICS AGAINST MULTIDRUG RESISTANT BACTERIA” (Purdue Research Foundation, priority 2018, published 2025).
Values after ≈ are worked out from the molar mass of the structure shown. Read-outs that look alike come from different tables or passages of the source.

Tests used:
[1] = system: Enterococcus fecalis Strain MMH594 - NR31975; assay: microbe, parasite or virus in culture; type: cell-based; details: Enterococcus, Table 4; Wild-type E. fecalis NR 31975
Procedure: (§1) The minimum inhibitory concentrations (MICs) of the compounds and control drugs were determined using the broth microdilution method, according to guidelines outlined by the Clinical and Laboratory Standards Institute (CLSI). Enterococci strains were grown aerobically overnight on tryptone soya agar plates at 37° C., afterwards a bacterial solution equivalent to 0.5 McFarland standard was prepared and diluted in tryptone soy broth (TSB) to achieve a bacterial concentration of about 5×10^5 CFU/mL and seeded in 96-well well plates. Compounds and control drugs were added in the first row of the 96-well plates and serially diluted along the plates. Plates were then incubated aerobically at 37° C. for 18-20 hours. MICs reported in Table 1 are the minimum concentration of the compounds/control drugs that could inhibit completely the visual growth of the bacteria.

[2] = system: Enterococcus faecium E417 - HM-965; assay: MIC, broth microdilution (CLSI); type: cell-based; details: Enterococcus faecium, E417HM965, Table 1; TSB; read-out: MIC
[3] = system: Enterococcus faecium Patient #2-1 - NR-31909; assay: MIC, broth microdilution (CLSI); type: cell-based; details: Enterococcus faecium, TSB, read-out: MIC
[4] = system: Enterococcus fecalis Strain SF 24397 NR31970; assay: MIC, broth microdilution (CLSI); type: cell-based; details: Enterococcus, TSB, read-out: MIC
[5] = system: MRSA NRS 384 (MRSA USA300); assay: MIC, broth microdilution (CLSI); type: cell-based; details: Staphylococcus aureus; Table 2; TSB
Procedure: as §1, with “Institute (CLSI)^1. Staphylococci” for “Institute (CLSI). Enterococci”, “Table 2” for “Table 1”

[6] = system: Staphylococcus epidermidis NRS 101; assay: MIC, broth microdilution (CLSI); type: cell-based; details: NRS101, Table 2, TSB
Procedure: as §1, with “Institute (CLSI)^1. Staphylococci” for “Institute (CLSI). Enterococci”, “Table 2” for “Table 1”

[7] = system: Mutant-2 of Enterococcus fecalis NR 31975; assay: microbe, parasite or virus in culture; type: cell-based
[8] = system: Mutant-4 of Enterococcus fecalis NR 31975; assay: microbe, parasite or virus in culture; type: cell-based
[9] = system: Mutant-5 of Enterococcus fecalis NR 31975; assay: microbe, parasite or virus in culture; type: cell-based
[10] = system: Mutant-11 of Enterococcus fecalis NR 31975; assay: microbe, parasite or virus in culture; type: cell-based
[11] = system: Mutant-14 of Enterococcus fecalis NR 31975; assay: microbe, parasite or virus in culture; type: cell-based
[12] = system: Mutant-15 of Enterococcus fecalis NR 31975; assay: microbe, parasite or virus in culture; type: cell-based
Caco-2 cells = assay: In vitro cytotoxicity, MTS assay; details: concentration up to 128 μg/mL; two hours incubation
Procedure: Method: Compounds AS005H, AS005J, AS004B, AS005K, AS005A and 005D were assayed (at concentrations of 64 and 128 μg/mL) against a human colorectal adenocarcinoma (Caco-2) cell to determine the potential toxic effect to mammalian cells in vitro. Briefly, cells were cultured in Dulbecco's Modified Eagle Medium (DMEM) supplemented with 20% fetal bovine serum (FBS), non-essential amino acids (1×), penicillin-streptomycin at 37° C. with CO2 (5%). Control cells received DMSO alone at a concentration equal to that in drug-treated cell samples. The cells were incubated with the compounds (in triplicate) in a 96-well plate at 37° C. with CO2 (5%) for two hours. The assay reagent MTS 3-(4,5-dimethylthiazol-2-yl)-5-(3-carboxymethoxyphenyl)-2-(4-sulfophenyl)-2H-tetrazolium) (Promega, Madison, WI, USA) was subsequently added and the plate was incubated for four hours. Absorbance readings (at OD490) were taken using a kinetic microplate reader (Molecular Devices, Sunnyvale, CA, USA). The quantity of viable cells after treatment with each compound was expressed as a percentage of the viability of DMSO-treated control cells (average of triplicate wells±standard deviation). The toxicity data was analyzed via a two-way ANOVA, with post hoc Dunnet's multiple comparisons test (P<0.05), utilizing GraphPad Prism 6.0 (GraphPad Software, La Jolla, CA).
Percent viable mammalian cells (measured as average absorbance ratio (test agent relative to DMSO) for cytotoxicity analysis of AS005H, AS005J, AS004B, AS005K, AS005A and 005D compounds (tested in triplicate) at 64 and 128 μg/mL against Caco-2 cells using the MTS 3-(4,5-dimethylthiazol-2-yl)-5-(3-carboxymethoxyphenyl)-2-(4-sulfophenyl)-2H-tetrazolium) assay. Dimethyl sulfoxide (DMSO) was used as a negative control to determine a baseline measurement for the cytotoxic impact of each compound. The absorbance values represent an average of a minimum of three samples analyzed for each compound. Error bars represent standard deviation values for the absorbance values. A two-way ANOVA, with post hoc Dunnet's multiple comparisons test, determined statistical difference (denoted by the asterisk) (P<0.05) between the values obtained for each compound and DMSO (negative control, used as solvent for the compounds).

`CC(C)=CC(=O)Nc1nnc(S(N)(=O)=O)s1` [CAI0016, 3-Methyl-N-(5-sulfamoyl-1,3,4-thiadiazol-2-yl)but-2-enamide] gave an MIC [1] of 1 µg/mL (≈ 3.81 µM), an MIC [2] of 0.25 µg/mL (≈ 0.953 µM) and an MIC ([3]; Table 1) of 0.5 µg/mL (≈ 1.91 µM). The MIC ([3]; Table 7) was 0.25 µg/mL (≈ 0.953 µM), the MIC ([4]; Table 1) was 0.5 µg/mL (≈ 1.91 µM) and the MIC ([4]; Table 7) was 0.25 µg/mL (≈ 0.953 µM). It also gave an MIC [5] greater than 64 µg/mL, an MIC [6] greater than 64 µg/mL and an MIC [7] of 8 µg/mL (≈ 30.5 µM). For the same compound, the MIC [8] was 8 µg/mL (≈ 30.5 µM), the MIC [9] was 4 µg/mL (≈ 15.2 µM) and the MIC [10] was 4 µg/mL (≈ 15.2 µM). For the same compound, the MIC [11] was 4 µg/mL (≈ 15.2 µM), the MIC [12] was 8 µg/mL (≈ 30.5 µM) and the “toxicity to Caco-2 cells (percent viable cells, MTS)” value (Caco-2 cells) was “non-toxic”.
